Patent publication US12576073B2, “Antiarrhythmic formulation” (InCarda Therapeutics, Inc., priority 2019, dated 2026)
Converted amounts (≈) assume the structure as drawn. Counter-ions that a name gives are not always drawn. Like-named read-outs stand apart in the source and are kept apart here.

Experiments:
[1] = Viscosity and complexation efficiency of flecainide acetate-HPβCD solutions; type: physicochemical; conditions: solutions adjusted to pH 5.2 with NaOH
Source text: In this example and the following examples, the (HP)-β-cyclodextrin used is “Cavitron W7 HP7 PHARMA”. The manufacturer (Ashland) specifies: <1.5% beta cyclodextrin (our batch had 1%) and molar substitution is between 0.86 and 1.14 (our batch had 1.05). From the manufacturer's brochure, the typical degree of substitution is 6.0 to 8.0 with an approximate average MW of 1520.
Beyond this concentration, the aerosol output rate can diminish slightly.

physchem [2] = conditions: thermodynamic from solid
Source text: The suspension was then magnetic stirred (1000 r/min) at RT for 24 hrs or 48 hrs.

physchem [3] = assay: physchem
physchem [4] = type: physicochemical; conditions: Solubility (mg/mL)
[5] = Solubility comparison of different flecainide salts in 0.1M acid media; conditions: for pH: Media (0.1M)
physchem [6] = conditions: aqueous buffer
[7] = Solubility of flecainide acetate in binary, ternary and quaternary acid mixtures; conditions: acid mixture (acetic/nitric/sulfuric acid), 25 °C, aqueous buffer, thermodynamic from solid
[8] = FLE-002 (INSTANT) study: plasma levels of flecainide (Cmax); type: in vivo; conditions: human, inhaled, oral inhalation
[9] = Solubility of flecainide in D/L-lactic acid media; type: physicochemical; conditions: thermodynamic from solid
Description: D-lactic acid, L-lactic acid, or DL-lactic acid was slowly added portionwise to the suspension while stirring. The system was left to equilibrate for 30 minutes, and the pH was determined. The pH was then adjusted to 5.2-6 with NaOH if necessary. After addition of NaOH, the system was again left to equilibrate for 30 minutes before pH was measured. After the desired pH was achieved, the suspension was stirred (1000 rpm) at ambient temperature for 48 hours. At 24 hours and 48 hours of stirring, samples of each solution were centrifuged at 10000 rpm for 2 minutes and filtered with a 0.45 μm membrane to obtain supernatant for pH determination and HPLC analysis. Solids from each sample were also characterized by X-ray powder diffraction (XRPD) analysis.

[10] = system: patients with recent onset of symptomatic paroxysmal atrial fibrillation; conditions: inhaled, Total of all dose groups (N = 99)
[11] = system: patients with recent onset of symptomatic paroxysmal atrial fibrillation; assay: FLE-002 (INSTANT) study: QRS interval from 12-lead ECG; type: in vivo, human; conditions: change from baseline
Beagle dogs = assay: 14-day repeat dose face mask inhalation toxicity study in dogs; conditions: dog, in vivo
Source text: This example describes a 14-day repeated-dose toxicity study via face mask inhalation with 14 day recovery in dogs.
In addition to the aerosol drug concentration, the aerosol particle size distribution was also characterized. The particle size average MMAD and GSD for the Low-, Mid-, and High-dose groups were 2.38 (1.79), 2.03 (1.87) and 2.08 (1.79) microns, respectively, and 1.74 (1.88) microns for vehicle control group. […] Chamber oxygen levels were monitored throughout the exposures. Main study animals were sacrificed on Day 15. Recovery animals were sacrificed on Day 29 following a 14-day recovery period. Endpoints included clinical observations, body weights, ophthalmology, clinical pathology, urinalysis, gross pathology, histopathology, and bioanalytical and toxicokinetic analyses.

[12] = system: patients with recent onset of symptomatic paroxysmal atrial fibrillation; assay: FLE-002 (INSTANT) Phase 2 study: conversion of AF to sinus rhythm; type: in vivo, human; conditions: within 60 minutes of dosing, evaluable patients
Source text: Patient eligibility for this study is generally consistent with eligibility for IV flecainide. 18 years and older, both male and female sexes are eligible for this study. Inclusion and exclusion criteria are summarized in TABLE 18A and TABLE 18B, respectively.
The study consists of 2 parts: Part A and Part B. Part A (dose finding) evaluates the feasibility of administration of IH Flec. Part B will confirm the dose and will include a pilot sub-study to simulate a patient led scenario with medical supervision.
Part A study. […] IH Flec formulations tested in this study include the ones listed in TABLE 19 (*, “CD” denotes a cyclodextrin-based formulation including 10% (w/v) hydroxypropyl β-cyclodextrin, 90 mM acetic acid buffer, and having a pH of 5.2; **, “iCD-SAC” denotes a cyclodextrin-based formulation including 20% β(w/v) hydroxypropyl β-cyclodextrin, 5 mM acetic acid, and 750 μM saccharin, and having a pH of 5.9).
In this study, for inhalation delivery of flecainide, the estimated total lung doses (eTLDs) were calculated to account for losses of flecainide in the inhalation device and losses of flecainide in subjects' mouth and throat. eTLD was thereby used to denote the dose that actually reached the lungs of the subjects. By design, in all nebulizers there can be a residual volume or mass of drug solution that stays in the nebulizer, and there can also be a percentage of the aerosol caught by subject's throat and mouth. For instance, in this study, it was estimated that 30% of the aerosol was lost in subject's throat and mouth. Therefore the eTLD would be: eTLD=(100−30)%*amount of aerosolized drug that left nebulizer=70%*(amount of drug placed in nebulizer−amount of drug staying in nebulizer).
The AeroEclipse®II BAN inhaler was used for nebulization and inhalation of the exemplary flecainide formulations. It is available as an approved device in several countries across the world including European countries, USA, and Canada. […]

O=C(NCC1CCCCN1)c1cc(OCC(F)(F)F)ccc1OCC(F)(F)F (stereo not shown) [flecainide acetate]
HPβCD molecules complexed with flecainide acetate [1]: 80% | solubility at 48 h (physchem [2]; aqueous with cosolvent or surfactant or cyclodextrin, 48 hrs Flecainide Acetate Solubility): 110 mg/mL | solubility at 24 h (physchem [2]; aqueous with cosolvent or surfactant or cyclodextrin, maximum solubility, calculated as freebase): 125 mg/mL | solubility at 48 h (physchem [2]; aqueous with cosolvent or surfactant or cyclodextrin, solubility (48 hrs), calculated as freebase): 105 mg/mL | solubility at 48 h (physchem [2]; water, 48 hrs Flecainide Acetate Solubility): 65.5 mg/mL | solubility (physchem [2]; water, solubility of flecainide acetate water solution): ~60 mg/mL | solubility (physchem [3]; HPβCD solution with acetic acid, pH 4.9, aqueous with cosolvent or surfactant or cyclodextrin): 136 mg/mL | solubility (physchem [3]; HPβCD solution with acetic acid, pH 5.1, aqueous with cosolvent or surfactant or cyclodextrin): 135 mg/mL | solubility (physchem [3]; HPβCD solution with acetic acid, pH 5.2, aqueous with cosolvent or surfactant or cyclodextrin): 135 mg/mL | solubility (physchem [3]; HPβCD solution with acetic acid, pH 5.5, aqueous with cosolvent or surfactant or cyclodextrin): 131 mg/mL | solubility (physchem [3]; HPβCD solution without acetic acid, pH 6.3, aqueous with cosolvent or surfactant or cyclodextrin): 125 mg/mL | solubility (physchem [4]; pH 5.3, aqueous with cosolvent or surfactant or cyclodextrin): 55 mg/mL | solubility (physchem [4]; pH 5.5, aqueous with cosolvent or surfactant or cyclodextrin): 69.7 mg/mL | pH [5]: 4.6 | effect of addition of sodium chloride (e.g. saline) to the formulation ([5]; XRPD confirmed form conversion): precipitation and loss of solubility | solubility (physchem [6]): 64 mg/mL | solubility [7]: 82.4 mg/mL

O=C(NCC1CCCCN1)c1cc(OCC(F)(F)F)ccc1OCC(F)(F)F (stereo not shown) [Hydrochloric Acid, flecainide hydrochloride]
pH ([5]; hydrochloride): 5.0 | solubility (physchem [6]; Concentration (mg/mL) Freebase): 5.34 mg/mL

flecainide nitrate [Nitric Acid]
pH [5]: 4.0

O=C(NCC1CCCCN1)c1cc(OCC(F)(F)F)ccc1OCC(F)(F)F (stereo not shown) [flecainide]
Cmax ([8]; 30 mg, 30 mg eTLD, read-out: Cmax (mean ± SD)): 127 ± 99.5 ng/mL | Cmax ([8]; 30 mg, 30 mg eTLD, read-out: Cmax Range): 5.8 to 69 ng/mL | Cmax ([8]; 60 mg, 60 mg eTLD, read-out: Cmax (mean ± SD)): 199 ± 222 ng/mL | Cmax ([8]; 60 mg, 60 mg eTLD, read-out: Cmax Range): 6.6 to 817 ng/mL | Cmax ([8]; 90 mg, 90 mg eTLD, read-out: Cmax (mean ± SD)): 248 ± 207 ng/mL | Cmax ([8]; 90 mg, 90 mg eTLD, read-out: Cmax Range): 17 to 834 ng/mL | solubility at 24 h ([9]; 20% w/v HPβCD in water with D-lactic acid, aqueous with cosolvent or surfactant or cyclodextrin, 20% w/v HPβCD, D-lactic acid, pH 5.8): 84.8 mg/mL (≈ 205 mM) | solubility at 48 h ([9]; 20% w/v HPβCD in water with D-lactic acid, aqueous with cosolvent or surfactant or cyclodextrin, 20% w/v HPβCD, D-lactic acid, pH 5.5): 88.4 mg/mL (≈ 213 mM) | solubility at 24 h ([9]; 20% w/v HPβCD in water with L-lactic acid, aqueous with cosolvent or surfactant or cyclodextrin, 20% w/v HPβCD, L-lactic acid, pH 6.3): 87.6 mg/mL (≈ 211 mM) | solubility at 48 h ([9]; 20% w/v HPβCD in water with L-lactic acid, aqueous with cosolvent or surfactant or cyclodextrin, 20% w/v HPβCD, L-lactic acid, pH 6): 89.3 mg/mL (≈ 216 mM) | solubility at 24 h ([9]; HPβCD solution with DL-lactic acid, aqueous with cosolvent or surfactant or cyclodextrin, 20% w/v HPβCD, DL-lactic acid, pH 6.5): 72.4 mg/mL (≈ 175 mM) | solubility at 24 h ([9]; pure water with D-lactic acid, aqueous buffer, no excipient (pure water), D-lactic acid, pH 5.1): 90.1 mg/mL (≈ 217 mM) | solubility at 48 h ([9]; pure water with D-lactic acid, aqueous buffer, no excipient (pure water), D-lactic acid, pH 5.4): 91 mg/mL (≈ 220 mM) | solubility at 24 h ([9]; pure water with DL-lactic acid, aqueous buffer, no excipient (pure water), DL-lactic acid, pH 6.1): 76.3 mg/mL (≈ 184 mM) | solubility at 48 h ([9]; pure water with DL-lactic acid, aqueous buffer, no excipient (pure water), DL-lactic acid, pH 6): 73.4 mg/mL (≈ 177 mM) | solubility at 24 h ([9]; pure water with L-lactic acid, aqueous buffer, no excipient (pure water), L-lactic acid, pH 5.6): 96.6 mg/mL (≈ 233 mM) | solubility at 48 h ([9]; pure water with L-lactic acid, aqueous buffer, no excipient (pure water), L-lactic acid, pH 5.1): 97.8 mg/mL (≈ 236 mM) | Adverse events: Cough [10]: 51 (52) n (%) | Adverse events: Dizziness [10]: 5 (5) n (%) | Adverse events: Dysphagia [10]: 9 (9) n (%) | Adverse events: Dyspnea [10]: 6 (6) n (%) | Adverse events: Gastrointestinal disorders [10]: 23 (23) n (%) | Adverse events: Hypotension [10]: 7 (7) n (%) | Adverse events: Nervous system disorders [10]: 7 (7) n (%) | Adverse events: Oropharyngeal pain [10]: 14 (14) n (%) | Adverse events: Respiratory, thoracic and mediastinal disorders [10]: 60 (61) n (%) | Adverse events: Salivary hypersecretion [10]: 8 (8) n (%) | Adverse events: Throat irritation [10]: 12 (12) n (%) | Adverse events: Vascular disorders [10]: 10 (10) n (%) | Patients with at least one TEAE [10]: 80 (81) n (%) | Patients with at least one TEAE, Moderate or Severe [10]: 35 (35) n (%) | Patients with at least one TEAE, Severe [10]: 2 (2) n (%) | Patients with at least one TEAE, Study-drug Related [10]: 74 (75) n (%) | Patients with at least one TESAE [10]: 7 (7) n (%) | Patients with at least one TESAE, Moderate or Severe [10]: 6 (6) n (%) | Patients with at least one TESAE, Severe [10]: 2 (2) n (%) | Patients with at least one TESAE, Study-drug Related [10]: 4 (4) n (%) | ΔQRSmax ([11]; 30 mg eTLD): 5.5 ± 13.1 ms | ΔQRSmax ([11]; 60 mg eTLD): 4.2 ± 4.6 ms | ΔQRSmax ([11]; 90 mg eTLD): 4.1 ± 3.2 ms | clinical observation associated with exposure (Beagle dogs): labored respiration during or immediately post exposure | Conversion Rate (AF to SR) ([12]; 30 mg eTLD): 1/10 (10%) | Conversion Rate (AF to SR) ([12]; 60 mg eTLD): 7/20 (35%) | Conversion Rate (AF to SR) ([12]; 90 mg eTLD): 7/21 (33%)
